Source: US20220267479A1, “POLYIODIDE BINDING COMPOUNDS AND METHODS OF USE THEREOF” (North Carolina State University, priority 2019, published 2022)
Several values for one entry are separate records, joined by “and”; a condition that tells them apart may be missing. Equal values may be shown once.

Columns and labels:
[1] = tested on: β-glucosidase from almonds; test: Indigogenic reaction with β-glucosidase from almonds; type: biochemical
Excerpt: With diverse glucosyl-indoxyl compounds in hand, we carried out a set of studies to examine indigoid-dye formation upon enzymatic cleavage of the glucosyl unit under physiological conditions. Altogether, 14 new (15, 16, 19-27, 30, 33, 41) and 2 known (1, 42) synthetic indoxyl-glucosides (lacking acetyl protecting groups) were examined in an effort to identify suitable combinations of substituents to support both bioconjugation and indigoid dye formation. In initial studies, β-glucosidase from almonds was employed to trigger indigoid dye formation (Table 1). Thus, a mixture of this enzyme (1 unit/mL) and an indoxyl β-glucoside (0.1 μmol, 1 mM) in acetate buffer (pH 5, containing 5% DMF) was incubated at 37° C. for 16-19 h. All indigoid dye was dissolved in each case for quantitative evaluation.
Reactions with β-glucosidase from almonds. An indoxyl compound in DMF (5 μL, 20 mM) and β-glucosidase from almonds in H2O (10 μL, 10 units/mL) were mixed with acetate buffer (85 μL, 50 mM, pH 5.0). The reaction mixture was incubated at 37° C. for 16-19 h and then allowed to cool to room temperature. DMF (300 μL for the reactions of 15, 16, 1, 19, 22, and 25; or 900 μL for the reactions of 42, 20, 21, 23, 24, 26, 27, 30, and 31, respectively) was added to dissolve any indigoid precipitate. The resulting solution was analyzed by absorption spectroscopy.

[2] = biological target: T1, β-glucosidase from Agrobacterium (Agrobacterium sp., UniProt P12614); test: Indigogenic reaction with β-glucosidase from Agrobacterium; type: biochemical
T1 construct: purchased Megazyme; host or cells: recombinant
T1 sequence (P12614 1-459): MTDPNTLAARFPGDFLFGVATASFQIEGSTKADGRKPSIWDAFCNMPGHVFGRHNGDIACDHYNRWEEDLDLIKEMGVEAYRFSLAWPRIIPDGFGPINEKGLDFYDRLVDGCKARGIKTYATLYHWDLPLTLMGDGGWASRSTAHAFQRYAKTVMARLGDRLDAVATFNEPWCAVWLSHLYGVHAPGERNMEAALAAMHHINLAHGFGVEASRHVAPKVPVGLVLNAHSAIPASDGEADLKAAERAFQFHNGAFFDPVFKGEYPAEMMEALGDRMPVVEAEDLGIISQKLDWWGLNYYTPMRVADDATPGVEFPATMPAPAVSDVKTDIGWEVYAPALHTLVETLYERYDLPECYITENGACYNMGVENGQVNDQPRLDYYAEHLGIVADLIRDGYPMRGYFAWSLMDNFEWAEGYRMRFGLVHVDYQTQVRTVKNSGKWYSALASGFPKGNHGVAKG
Experimental: Next, the β-glucosidase from Agrobacterium sp. was investigated as the trigger enzyme for indigoid dye formation. […]
Reactions with β-glucosidase from Agrobacterium. An indoxyl compound in DMF (2 μL, 5 mM) and β-glucosidase from Agrobacterium in 10 mM phosphate buffer [2 μL, 10 μM, pH 7.0, containing 50 mM NaCl and 0.6 M (NH4)2SO4] were mixed with 50 mM phosphate buffer (96 μL, pH 7.0). The reaction mixture was incubated at 37° C. for 2 h and then centrifuged for 3 min. Any precipitate was separated from the supernatant and dissolved in DMF (200 μL). The resulting solution was analyzed by absorption spectroscopy. The experiment was repeated three times.

rat liver homogenate = test: Indigoid-dye formation in rat liver homogenate; type: biochemical; settings: indoxyl 1 mM, 5% DMF, 37° C., 24 h
Experimental: Finally, indigoid-dye formation was carried out in rat liver homogenate (Table 1, rightmost column).
Reactions in rat liver homogenate. An indoxyl compound in DMF (5 μL, 20 mM) was mixed with rat liver homogenate (95 μL). The reaction mixture was incubated at 37° C. for 24 h. After allowing to cool to room temperature, the reaction mixture was diluted with DMF (900 μL). The mixture was heated at 70° C. for 2 min and then centrifuged for 2 min. The supernatant was separated from any precipitate. This extraction procedure was repeated two or three times with DMF (100-500 μL). The combined supernatant (1500-1800 μL) was analyzed by absorption spectroscopy.

[3] = biological target: T2, β-glucosidase from Agrobacterium plus rat liver homogenate (Agrobacterium sp., UniProt P12614); test: Reaction of 33 with β-glucosidase from Agrobacterium in rat liver homogenate; type: biochemical; settings: 33 100 μM, enzyme 200 nM, 2% DMF, 37° C., 4 h; ε = 2.6 × 10^4 M^-1 cm^-1
T2 construct: purchased Megazyme; host or cells: recombinant
T2 sequence (P12614 1-459): T1 sequence (P12614 1-459)
Experimental: Finally, indigoid-dye formation was carried out in rat liver homogenate (Table 1, rightmost column). Good yields were obtained in the case of 42 (65%, entry 4) and 27 (50%, entry 13). […] However, when β-glucosidase from Agrobacterium (200 nM) was present in rat liver homogenate, the indigoid dye was obtained in 81% yield (entry 15).
Reaction of 33 with β-glucosidase from Agrobacterium in rat liver homogenate. A DMF solution of 33 (2 μL, 5 mM) and β-glucosidase from Agrobacterium in 10 mM phosphate buffer [2 μL, 10 μM, pH 7.0, containing 50 mM NaCl and 0.6 M (NH4)2SO4] were mixed with rat liver homogenate (96 μL). The reaction mixture was incubated at 37° C. for 4 h and then centrifuged for 3 min. Any precipitate was separated from the supernatant and then suspended in DMF (200 μL). The suspension was centrifuged for 3 min. The supernatant was analyzed by absorption spectroscopy.

tritosomes = test: Indigoid dye formation with tritosomes; type: biochemical
Experimental: The results from the glucosidase survey prompted several further experiments. First, a parallel set of studies was carried out with inclusion of several oxidants commonly employed in histochemical studies, given that the indigoid dye forming process requires the presence of an oxidant. […] The activity of the β-glucosidase was affected only slightly in the presence of a non-ionic detergent. To verify that the results observed in Table 1 were reliable, a 5-mg scale reaction of 33 was carried out to isolate indigo 43, which was obtained in 66% yield (Scheme 7). The 66% isolated yield corresponded well with the enzymatic yield of […] (Table 1, entry 15).
General methods. β-Glucosidase from almonds (lyophilized powder, >2 units/mg solid) and peroxidase from horseradish were purchased from Sigma-Aldrich. O-Glucosidase from Agrobacterium sp. (recombinant, suspension in 3.2 M (NH4)2SO4) was purchased from Megazyme; the concentration in solution was determined by absorption spectroscopy with E^0.1%32 2.20 cm^−1 at 280 nm.^37 Tritosomes were purchased from XenoTech. Rat liver homogenate was purchased from MP Biomedicals.

[4] = type: physicochemical; settings: pH 7.4
Excerpt: Water solubility of the indoxyl glucoside is important for biological applications. […] Therefore, this compound is not suitable for bioconjugation. The synthesis of 34 relies on successive substitution of the dichloroanilinotriazine unit (derived from N,N-bis(2-methoxyethyl)aniline^31 and cyanuric chloride) with indoxyl-glucoside-PEG-OH and BCN-PEG-NH2 building blocks.
To improve the water solubility of the indoxyl species, a sulfobetaine unit^32,33 was incorporated as a water-solubilizing group. Sulfobetaines are stable zwitterions over a wide range of pH. Synthesis of an indoxyl bearing a sulfobetaine unit is illustrated in Scheme 6. Boc-piperazine (35) was treated with 1,3-propane sultone to afford 36 in 63% yield. Quaternization of the tertiary nitrogen atom in 36 with 3-bromopropanol gave Boc-protected sulfobetaine 37 in 69% yield. The Boc group was cleaved with trifluoroacetic acid (TFA) to afford piperazine-TFA salt 38 in 97% yield. The N-acetyl group of 32 was selectively deprotected with NaHCO3/MeOH in 84% yield. The product 39, piperazine-TFA salt 38, and BCN-amine 14 were assembled at a triazine ring via one-flask, successive substitution of cyanuric chloride to afford 40 in 51% yield. Cleavage of the acetyl groups of sulfobetaine 40 provided 41 in 98% yield.

[5] = as E4 but ε = 2.6 × 10^4 M^-1 cm^-1 measured for 43

What does the source list for `OCCOCCOCCOc1c(Br)cc2[nH]cc(O[C@@H]3O[C@H](CO)[C@@H](O)[C@H](O)[C@H]3O)c2c1Br` [Indoxyl 33, 4,6-Dibromo-5-[1-hydroxy-3,6,9-trioxanon-9-yl]-1H-indol-3-yl β-D-glucopyranoside]?
Yield (%) β-glucosidase from almonds ([1]; as E1 but ε = 2.6 × 10^4 M^-1 cm^-1 measured for 43): 52% and 52^g %; Yield of indigoid dye ([2]; 33 at 1.0 μM, enzyme 200 nM, pH 7.0, 2 h): 41%; Yield of indigoid dye ([2]; 33 at 1.0 μM, enzyme 200 nM, pH 7.0, 14 h): 57%; Yield of indigoid dye ([2]; 33 at 1.8 μM, enzyme 200 nM, pH 7.0, 2 h): 42%; Yield of indigoid dye ([2]; 33 at 1.8 μM, enzyme 200 nM, pH 7.0, 14 h): 79%; Yield of indigoid dye ([2]; 33 at 3.2 μM, enzyme 200 nM, pH 7.0, 2 h): 51%; Yield of indigoid dye ([2]; 33 at 3.2 μM, enzyme 200 nM, pH 7.0, 14 h): 88%; Yield of indigoid dye ([2]; 33 at 5.6 μM, enzyme 200 nM, pH 7.0, 2 h): 62%; Yield of indigoid dye ([2]; 33 at 10 μM, enzyme 200 nM, pH 7.0, 2 h): 90%; Yield of indigoid dye ([2]; 33 at 18 μM, enzyme 200 nM, pH 7.0, 2 h): 85%; Yield of indigoid dye ([2]; 33 at 32 μM, enzyme 200 nM, pH 7.0, 2 h): 86%; Yield of indigoid dye ([2]; 33 at 56 μM, enzyme 200 nM, pH 7.0, 2 h): 89%; Yield (%) β-glucosidase from Agrobacterium [2, 5]: 99% and 99 ± 5^g %; Yield of indigoid dye ([2]; pH 4, 33 100 μM, enzyme 200 nM, phosphate buffer, 37° C., 3 h): 6%; Yield of indigoid dye ([2]; pH 5, 33 100 μM, enzyme 200 nM, phosphate buffer, 37° C., 3 h): 38%; Yield of indigoid dye ([2]; pH 6-8, 10 nM enzyme, 33 100 μM, 2 h): 50-71%; Yield of indigoid dye ([2]; pH 6-9, 33 100 μM, enzyme 200 nM, 3 h): High to quantitative yields; Yield (%) rat liver homogenate (rat liver homogenate; ε = 2.6 × 10^4 M^-1 cm^-1 measured for 43): < 5%; Yield (%) β-glucosidase from Agrobacterium plus rat liver homogenate [3]: 81% and 81 ± 5%

Which “Yield (%) β-glucosidase from almonds” value ([1]; indoxyl 1 mM, enzyme 1 unit/mL, acetate buffer pH 5, 5% DMF, 37° C., 16-19 h, ε = 1.27 × 10^4 M^-1 cm^-1 (measured for 4)) does the source give for `COc1nc(Oc2ccc3[nH]cc(O[C@@H]4O[C@H](CO)[C@@H](O)[C@H](O)[C@H]4O)c3c2)nc(N2CCOCC2)n1` [Indoxyl 19, 5-[(4-Methoxy-6-morpholino-1,3,5-triazin-2-yl)oxy]-1H-indole-3-yl β-D-glucopyranoside] here?
The value was less than 1%.

And the “Yield (%) β-glucosidase from Agrobacterium” value ([2]; indoxyl 100 μM, enzyme 200 nM, 0.05 M phosphate buffer pH 7.0, 2% DMF, 37° C., 2 h, n=3, ε = 1.27 × 10^4 M^-1 cm^-1)?
Its value is 46 ± 5%.

What about the “Yield (%) rat liver homogenate” value (rat liver homogenate; ε = 1.27 × 10^4 M^-1 cm^-1) of the same molecule?
The value was less than 5%.

And the “Indigoid dye formation with tritosomes” value (tritosomes)?
The value was “low yield of indigoid dye”.

With `O=C(NCCOCCOCCNc1nc(OCCOCCOCCOc2c(Br)cc3[nH]cc(OC4O[C@H](CO)[C@@H](O)[C@H](O)[C@H]4O)c3c2Br)nc(N2CC[N+](CCCO)(CCCS(=O)(=O)[O-])CC2)n1)OC[C@@H]1[C@@H]2CCC#CCC[C@@H]21` (stereo partly shown) [Indoxyl 41] as the molecule, how does the “Yield (%) β-glucosidase from Agrobacterium” value [2, 5] read?
Its value is 106% and 106 ± 4^g %.

And the Solubility [4]?
The Solubility was greater than 400 µM.
